Activity and Stability data for 3 compounds are collected here from ChEMBL document CHEMBL4616655, “Kalparinol, a Salvialane (Isodaucane) Sesquiterpenoid Derived from Native Australian Dysphania Species That Suggests a Putative Biogenetic Link to Zerumbone” (J Nat Prod, 2020).

Active and inactive are the calls of the source. The calls are words filed in the database; no cut-off is given here.

Series [1] deals with MCF7. Description: Cytotoxicity against human MCF7 cells assessed as reduction in cell viability after 6 days by SRB assay. The format is functional, cell-based. (In general: In SRB staining, fixed cells bind dye roughly in proportion to their protein.)
Series [2] relates to SCC-9. Description: Cytotoxicity against human SCC9 cells assessed as reduction in cell viability after 6 days by SRB assay. The format is functional, cell-based.
Series [3] deals with SCC-15. Description: Cytotoxicity against human SCC15 cells assessed as reduction in cell viability after 6 days by SRB assay. The class given is functional, cell-based.
Series [4] has as its system FaDu. Nature of the series: Cytotoxicity against human FADU cells assessed as reduction in cell viability after 6 days by SRB assay. The class given is functional, cell-based.
Series [5] deals with SCC-25. Description: Cytotoxicity against human SCC25 cells assessed as reduction in cell viability after 6 days by SRB assay. The format is functional, cell-based.
Series [6] has as its system NFF. Nature of the series: Cytotoxicity against human NFF cells assessed as reduction in cell viability after 6 days by SRB assay. The class given is cell-based. The following applies: 144 h.
Series [7] deals with CAL-27. Nature of the series: Cytotoxicity against human CAL27 cells assessed as reduction in cell viability after 6 days by SRB assay. The class given is functional, cell-based.
Series [8] concerns MM96L. Nature of the series: Cytotoxicity against human MM96L cells assessed as reduction in cell viability after 6 days by SRB assay. The class given is functional, cell-based.
Series [9] can be described thus: Stability of compound in DMSO. The class given is physicochemical.
The subject of series [10] is [Candida] auris. Nature of the series: Antifungal activity against Candida auris CBS 12373 assessed as reduction in microbial growth up to 200 uM incubated for 24 to 48 hrs. The format is functional, organism-based. The settings on record: Candidozyma auris.
Series [11] deals with Nakaseomyces glabratus. Description: Antifungal activity against Candida glabrata ATCC 90030 assessed as reduction in microbial growth up to 200 uM incubated for 24 to 48 hrs. The class given is functional, organism-based.
Series [12] relates to Pichia kudriavzevii. Nature of the series: Antifungal activity against Pichia kudriavzevii ATCC 6258 assessed as reduction in microbial growth up to 200 uM incubated for 24 to 48 hrs. The format is functional, organism-based.
Series [13] concerns Candida albicans. Description: Antifungal activity against Candida albicans ATCC 90028 assessed as reduction in microbial growth up to 200 uM incubated for 24 to 48 hrs. The class given is functional, organism-based.
Series [14] deals with [Candida] auris. Description: Antifungal activity against Candida auris CBS 10913 assessed as reduction in microbial growth up to 200 uM incubated for 24 to 48 hrs. The format is functional, organism-based. The following applies: Candidozyma auris.

Take `C/C1=C\CC[C@@]2(C)O[C@@H]2CC(C)(C)/C=C/C1=O` [ZERUMBONE EPOXIDE]: the outcome in [1], in series [2], in series [3], in series [4], in series [5] and in [7] was inactive. Further, the outcome in series [8] was inactive. The Activity entry in series [6] is “Non-Toxic”.
`C[C@@H]1CCC[C@@]2(C)[C@H](C1=O)[C@@H](C(C)(C)O)C[C@@H]2O`: the Stability entry in series [9] is listed as “Unstable”.
In the case of `C/C1=C/CC[C@@]2(C)O[C@@H]2CC(C)(C)/C=C/C1=O`, the outcome in [1], in [2], in series [10], in series [3], in series [11] and in [4] was inactive. For the same compound, the result in [5], in series [12], in series [13], in [7], in series [14] and in [8] was inactive. Further, in series [6], the Activity entry is “Non-Toxic”.
